# Assay results as given in patent publication US20080182872A1, “USE OF ER-BETA SELECTIVE LIGANDS FOR TREATING ACUTE LUNG INJURIES” (WYETH, priority 2007, published 2008).
# Columns and labels:
# [1] = tested on: CLP-induced polymicrobial sepsis; test: Murine cecal ligation and puncture (CLP) model of polymicrobial sepsis; format: in vivo, BALB/c mice; settings: score 0 normal to 4 marked diffuse inflammation and damage; oral dosing from time of CLP; euthanized at 48 hours; 8 animals; p<0.001 vs vehicle 3.08±0.74
# Procedure: Murine cecal ligation and puncture is an accepted model of sepsis and was performed according to a previously published protocol [Opal et al., “evaluation of the safety of recombinant P-selectin glycoprotein ligand-immunoglobulin G fusion protein in experimental models of localized and systemic infection,” Shock 2001;15:285-90]. […] Acute lung injury is a documented component of this peritonitis-induced sepsis, and the model has been used to study the effects of other pharmaceutical agents on acute lung injury in sepsis [Tsujimoto et al. Shock 2005;23:39-44; and Singleton et al. Am J Physiol Regul Integr Comp Physiol (Jan. 18, 2007)].
# Mice were euthanized at 48 hours following CLP and treatment with vehicle or Compound 1, both treatments having begun at the time of CLP.
# Compound 1 was given at a range of doses orally at time 0, 24 and 48 hours following CLP in male and female BALB/c mice Survival, inflammatory markers, lung histopathology, and microbiologic parameters were assessed.
# Multiple lung specimens were taken at necropsy from 8 vehicle- and 8 Compound 1—treated animals and evaluated by an independent pathologist unaware of the treatment group assignments. Treatment with Compound 1 reduced lung lesions (such as lung edema and lung inflammation) comparing to that with vehicle (Compound 1: 1.0±0.76 vs. vehicle: 3.08±0.74, p<0.001). […]
# [2] = tested on: E. coli; test: Intravenous E. coli challenge model of sepsis in baboons; format: in vivo; settings: 10 mg/kg intravenously
# Procedure: The intravenous E. coli infusion model of sepsis in baboons has been used for many years in sepsis research [Taylor F B Crit Care Med 2001 ;29:S78-89], and it has acute lung injury as one of its pathophysiological features [Sabharwal A K et al. Am J Resp Crit Care 1995; 151:758-67].
# Compound 1 was given at a range of doses […] intravenously at a dose of 10 mg/kg in baboons 5 minutes before and then at 2, 24, 48, 72 and 96 hours following E. coli challenge. Survival, inflammatory markers, lung histopathology, and microbiologic parameters were assessed.
# In the baboon study the lungs were examined at euthanasia of the animals when moribund or at the end of the 7 day experiment. Animals were assigned to vehicle and Compound 1 E. coli challenge. The lung specimens were evaluated by an independent pathologist unaware of treatment group assignments.
# [3] = tested on: peripheral blood mononuclear cells (PBMC) gene transcripts and plasma chemokines; test: Plasma proteome and PBMC gene transcription in the IV live E. coli challenge model in baboon; format: in vivo
# Procedure: The plasma proteome and gene transcription of peripheral blood mononuclear cells (PBMC) were investigated using the baboon model of sepsis to evaluate the effect of Compound 1 on progression of the disease. The study comprised three treatment groups—sham-treated, vehicle, and Compound 1—of three baboons each. Blood samples were drawn at multiple time points (0, 0.5, 1, 2, 3, 4, 6, 24, 48, and 168 hours) from each baboon. NuGen amplified RNA was prepared from peripheral blood mononuclear cells (PBMC) isolated from the 0, 1, 6, and 24 hour blood samples. RNA levels were then measured using Affymetrix rhesus monkey Genechips, which interrogated 52,865 transcripts. Of interest was whether expression levels of one or more of these transcripts differed among the three treatment groups over the course of the study.
# Genechip data were processed using Affymetrix MAS 5 software to calculate detection p-values and signal (expression) values. Detection p-values were used to generate Affymetrix Absent, Marginal, or Present calls (p-value≧0.065: Absent; 0.05≦p-value<0.065: Marginal; p-value<0.05: Present). Signal values were normalized by the standard MAS 5 procedure.
# This filter reduced the number of transcripts for further analysis to 43,181.
# To adjust for differences among animals in baseline expression values, change from baseline expression was analyzed. Change from baseline expression values were calculated using log2-transformed signal values. For each transcript, the log2 signal value for an animal at the 0 hour (baseline) sampling time was subtracted from the log2 signal value for the same animal for each later sampling time to yield change from baseline values for 1, 6, and 24 hours for that animal.
# Repeated-measures analysis of variance (ANOVA) was used to compare (log2-transformed) change from baseline expression values in the treatment groups across the sampling time points. The ANOVA model included terms for treatment group and sampling time, and a term for the interaction between treatment group and time. The model also included a compound symmetry covariance parameter to account for any within-animal correlation between measurements at different sampling times from the same animal. Separate ANOVAs were run for each transcript. Pairwise comparisons between treatment groups were computed for mean concentrations across all times as well as for each time point separated. These pairwise comparisons were based on two-sided t-tests, with the error term for the t-tests based on the overall error term from the ANOVA.
# Due to the substantial number of statistical tests performed, false discovery rates (FDRs) were used to adjust the raw p-values from F-tests and t-tests for multiple comparisons. The FDRs were computed to control the family-wise error level by calculating FDRs across transcripts separately for each set of comparisons (e.g., each pairwise comparison at a particular sampling time).
# [4] = tested on: lung tissue gene expression; test: Lung tissue gene expression in the mCLP model (Affymetrix array, Ingenuity Pathways Analysis); format: in vivo; settings: mice subjected to CLP, intravenous treatment at CLP induction, lung tissue at 48 hours
# Procedure: In order to further define the activity of Compound 1 in murine CLP, satellite groups of mice were treated intravenously at the time of CLP induction surgery with vehicle or Compound 1. An additional group of mice(surgical sham group) were subjected to the anesthesia and laparotomy, the cecum was manipulated but not ligated, and then the abdomen was closed. Because mCLP produces a progressive sepsis state, the animals become extremely ill and begin to succumb between 48-72 hours after mCLP. Thus, these animals were euthanized at 48 hours and lung tissue samples collected for gene expression analysis.
# Messenger RNA was prepared by standard techniques, and the samples were processed on the Mouse430—2 Affymetrix commercial array, containing 45,037 non-control probe sets.
# A heat map of differential gene expression was used to detect those gene transcripts with gene expression decreasing and those gene transcripts with gene expression increasing.
# Using Ingenuity Pathways Analysis (IPA), 277 of the 522 probe sets were eligible for generating pathways. […] These pathways are identified in Table 4.
# [5] = tested on: S. pneumoniae; test: Murine pneumonia model (invasive pneumococcal pneumonia); format: in vivo; settings: 3 mg/kg IV at 24 and 48 hours after S. pneumoniae LD90 inoculation; moxifloxacin at 6, 24, 48 hours; all vehicle animals succumbed by 80 hours
# Procedure: The effects of Compound 1 and Compound 2[2-(3-fluoro-4-hydroxyphenyl)-7-vinyl-1,3-benzoxazol-5-ol, or ERB-041] initially dosed at 3 mg/kg IV were being assessed on 7-day survival, microbial clearance and attenuation the acute and chronic pro-inflammatory effects of invasive pneumococcal pneumonia in lung tissue and distant organs in the murine pneumonia model. [Mohler J et al. Intensive Care Med 2003; 29:808-816.] Compound 1 and Compound 2 were tested to determine their ability to modulate the pathophysiology of severe infection and mortality from local and systemic inflammation from severe bacterial pneumonia. The compounds were delivered IV at 24 and 48 hours after inoculation with S. pneumoniae at an LD90 dose. Moxifloxacin was given at 6, 24 and 48 hours. The animals became bacteremic and develop a lethal pulmonary and systemic infection between 48 and 72 hours after the primary inoculation. All of the vehicle treated animals succumbed by 80 hours (3 days and 8 hours), while at 7 days 20% of the Compound 1—treated animals were alive and 60% of the Compound 2—treated animals survived.
# [6] = baboon plasma after E coli challenge
# [7] = by 24 hours after E coli infusion, compared to vehicle treated animals
SMILES,lung lesions (lung edema and lung inflammation) histopathology score [1],clinical signs of pulmonary injury (percent change in respiratory rate from baseline) [2],hyaline membrane formation (histopathology) ([2]; lungs at euthanasia or day 7),intrapulmonary hemorrhage (histopathology) ([2]; lungs at euthanasia or day 7),"plasma MCP-1 [3, 6]","plasma MIP-1 alpha [3, 6]","Hypoxia inducible factor-2 Alpha (HIF2-ALPHA) gene transcript in PBMC [3, 7]","Nuclear receptor subfamily 4, group A, member 3 (NR4A3) gene transcript in PBMC [3, 7]","early growth response 3 (EGR-3) gene transcript in PBMC [3, 7]",proinflammatory pathways (gene transcripts) in the lungs [4],animals alive (survival) at 7 days [5]
"N#Cc1cc(-c2ccc(O)c(F)c2)cc2ccc(O)cc12 [Compound 1, 3-(3-fluoro-4-hydroxy-phenyl)-7-hydroxy-naphthalene-1-carbonitrile]",1.0±0.76,attenuated,absence of hyaline membrane formation,decreased intrapulmonary hemorrhage,significantly reduced,significantly reduced,decreased,decreased,decreased,significantly decreased,20%
"C=Cc1cc(O)cc2nc(-c3ccc(O)c(F)c3)oc12 [Compound 2, 2-(3-fluoro-4-hydroxyphenyl)-7-vinyl-1,3-benzoxazol-5-ol]",–,–,–,–,–,–,–,–,–,–,60%
